The subject of test [1] is big ET-1-induced pressor responses. The experiment in a line: Test on Inhibition of Big ET-1-induced Pressor Responses in Pithed Rats. Type of test: in vivo, male Wistar rats. The settings on record: Rattus norvegicus, 0.5 h, read-out: DR2. On the procedure: (3) Test on Inhibition of Big ET-1-induced Pressor Responses in Pithed Rats
Male Wistar rats (body weight: […]) were anesthetized by sodium pentobarbital (60 mg/kg, i.p.) and a cannula for artificial ventilation was inserted into a trachea. Spinal cord was broken by inserting a rod made of steel thereinto and then the rat was connected to an artificial respirator. A catheter for measuring the systemic arterial blood pressure was inserted into a carotid artery while another catheter for administering big ET-1 was inserted into a femoral vein. After 30 minutes from the oral administration of a test compound at doses of 0.1 to 10 mg/kg, the rat was pithed and then big ET-1 was intravenously administered at doses of 0.1 to 3.2 nmol/kg in a cumulative manner. Activity of the test compound was evaluated by the dose (DR2 value) whereby the dose-response curve of pressor responses by big ET-1 to the right hand direction to an extent of two-fold.

Test [2] deals with T1, human ETA receptor (Homo sapiens, UniProt P25101).
T1 sequence (P25101 21-427): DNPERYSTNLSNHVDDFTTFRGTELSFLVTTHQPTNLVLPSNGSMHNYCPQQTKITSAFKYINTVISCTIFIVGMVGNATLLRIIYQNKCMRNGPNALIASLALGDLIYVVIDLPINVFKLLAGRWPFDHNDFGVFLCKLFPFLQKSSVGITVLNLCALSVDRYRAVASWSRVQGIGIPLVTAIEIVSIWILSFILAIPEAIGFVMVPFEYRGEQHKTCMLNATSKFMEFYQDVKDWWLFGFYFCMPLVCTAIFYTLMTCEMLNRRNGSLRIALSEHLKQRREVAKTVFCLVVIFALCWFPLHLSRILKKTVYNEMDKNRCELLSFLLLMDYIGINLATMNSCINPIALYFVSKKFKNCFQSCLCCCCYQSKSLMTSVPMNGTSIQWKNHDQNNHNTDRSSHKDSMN
The test is described as follows: Test on Inhibition of Binding of Endothelin (ET-1) to Human ETA Receptor. The protocol: (1) Test on Inhibition of Binding of Endothelin (ET-1) to Human ETA Receptor
cDNA of human ETA receptor was obtained from mRNA of human lung by means of an RT-PCR and then transferred into pEF-BOS, a vector for expression, to prepare plasmid. The prepared plasmid was added to a culture of COS-1 cells (cell strain derived from renal cells of African green monkey) with DEAE-dextran and cDNA of human ETA was transfected to COS-1 cells. Then it was incubated for three days in a conventional DMEM (containing 10% of FBS) and the COS-1 cells recovered therefrom were suspended in a hypotonic buffer (10 mM Tris-HCl and 5 mM EDTA; pH 7.4) followed by homogenizing the cells using a Polytron. The suspension in which the cells were homogenized was subjected to an ultracentrifugation (100,000G for 30 minutes at 4° C.), the resulting precipitate (cell membrane fraction) was re-suspended in a Tris buffer (50 mM Tris-HCl and 10 mM MgCl2; pH 7.4) and the suspension was preserved by freezing at -80° C. (protein amount: about 1 mg/ml).
In conducting the experiment of binding the receptor, the frozen cell membrane sample was melted and resuspended in an incubation buffer (50 mM Tris-HCl, 10 mM MgCl2 and 0.01% bovine serum albumin; pH 7.4). The membrane suspension (200 μl) containing 1.25 μg as a membrane protein, 25 μl of an incubation buffer containing a test compound in various concentrations and 25 μl of [^125 I] ET-1 (specific activity: 2,200 Ci/mM; final concentration: […]) were incubated together at 25° C. for three hours and then filtered through a glass fiber filter using a Brandel cell harvester. Measurement of radioactivity on the glass fiber filter was conducted by means of a gamma-counter (counting efficiency: 81%). Nonspecific binding was determined by the use of a test buffer containing 0.1 μM of ET-1. Inhibiting activity of the test compound to [^125 I] ET-1 was calculated as a concentration (IC50) necessary for inhibiting 50% of the specific binding.

Where [3] appears, read: oral administration 30 minutes before pithing, dose shifting big ET-1 pressor dose-response curve two-fold to the right.
Setting [4] is: inhibition of [^125 I] ET-1 specific binding, COS-1 cell membranes expressing human ETA, pH 7.4, 25° C., three hours, read-out: IC50.

The structures appear in SMILES notation. Like-named read-outs stand apart in the source and are kept apart here.

The IC50 is the concentration that inhibits the measured activity by half.

For `COc1ccccc1Oc1c(NS(=O)(=O)c2ccc(C(C)(C)C)cc2)nc(-c2ncccn2)nc1OCCO` [Comparative Compound, Bosentan, reference compound], the ED (2-fold shift) in test [1] (setting [3]) amounted to 32 mg/kg.

Consider `COc1ccccc1Oc1c(NS(=O)(=O)C=Cc2ccccc2)nc(-c2ncccn2)nc1OCCO` [Example 1, potassium N-[6-(2-hydroxyethoxy)-5-(2-methoxyphenoxy)-2-(2-pyrimidinyl)-4-pyrimidinyl]-2-phenylethenesulfonamidate], for which, in test [2] (setting [4]), the IC50 turned out to be 1.6 nM.

In the case of `COc1ccccc1Oc1c(NS(=O)(=O)C=Cc2ccccc2)nc(-c2ncccn2)nc1OC` [Example 2, N-[6-methoxy-5-(2-methoxyphenoxy)-2-(2-pyrimidinyl)-4-pyrimidinyl]-2-phenylethenesulfonamide], the ED (2-fold shift) in test [1] (po) was determined as 0.61 mg/kg. For the same molecule, the concentration for half-maximal inhibition (IC50) in test [2] turned out to be 3.1 nM.

Take `COCCOc1nc(-c2ncccn2)nc(NS(=O)(=O)C=Cc2ccccc2)c1Oc1ccccc1OC` [Example 6, N-[6-(2-Methoxyethoxy)-5-(2-methoxyphenoxy)-2-(2-pyrimidinyl)-4-pyrimidinyl]-2-phenylethenesulfonamide]: the IC50 in test [2] (setting [4]) stood at 4.8 nM.

For the molecule `COc1ccccc1Oc1c(NS(=O)(=O)C=Cc2ccccc2)nc(-c2ncccn2)nc1OCCF` [Example 8, N-[6-(2-fluoroethoxy)-5-(2-methoxyphenoxy)-2-(2-pyrimidinyl)-4-pyrimidinyl]-2-phenylethenesulfonamide], in test [2] (setting [4]), the IC50 came out at 2.9 nM.

In the case of `C#CCOc1nc(-c2ncccn2)nc(NS(=O)(=O)C=Cc2ccccc2)c1Oc1ccccc1OC` [Example 13, N-[6-(2-propynyloxy)-5-(2-methoxyphenoxy)-2-(2-pyrimidinyl)-4-pyrimidinyl]-2-phenylethenesulfonamide], the IC50 in test [2] (setting [4]) amounted to 5.5 nM.

For `COc1cc(OC)cc(-c2nc(NS(=O)(=O)C=Cc3ccccc3)c(Oc3ccccc3OC)c(OC)n2)c1` [Example 22, N-[2-(3,5-Dimethoxyphenyl)-6-methoxy-5-(2-methoxyphenoxy)-4-pyrimidinyl]-2-phenylethenesulfonamide], the IC50 in test [2] (setting [4]) turned out to be 9.5 nM.

Consider `COc1ccccc1Oc1c(NS(=O)(=O)C=Cc2ccccc2)nc(-c2ccncc2)nc1OC` [Example 27, N-[6-Methoxy-5-(2-methoxyphenoxy)-2-(4-pyridyl)-4-pyrimidinyl]-2-phenylethenesulfonamide], for which the 50% inhibitory concentration (IC50) in test [2] (setting [4]) was determined as 5.9 nM.

In the case of `COc1ccccc1Oc1c(NS(=O)(=O)C=Cc2ccccc2)nc(-c2ccsc2)nc1OC` [Example 32, N-[6-Methoxy-5-(2-methoxyphenoxy)-2-(3-thienyl)-4-pyrimidinyl]-2-phenylethenesulfonamide], in test [2] (setting [4]), the IC50 turned out to be 5.1 nM.

As for `COc1ccccc1Oc1c(NS(=O)(=O)C=Cc2ccccc2)nc(-c2csc(C)n2)nc1OC` [Example 33, N-[6-Methoxy-5-(2-methoxyphenoxy)-2-(2-methyl-4-thiazolyl)-4-pyrimidinyl]-2-phenylethenesulfonamide], in test [2] (setting [4]), the concentration for half-maximal inhibition (IC50) is 7.7 nM.

`COc1ccccc1Oc1c(NS(=O)(=O)C=Cc2ccccc2)nc(-c2ccoc2)nc1OC` [Example 34, N-[6-Methoxy-5-(2-methoxyphenoxy)-2-(3-furyl)-4-pyrimidinyl]-2-phenylethenesulfonamide]: the IC50 in test [2] (setting [4]) is 9.7 nM.

Regarding `COc1ccccc1Oc1c(NS(=O)(=O)C(C)=Cc2ccccc2)nc(-c2ncccn2)nc1OC` [Example 37, N-[6-Methoxy-5-(2-methoxyphenoxy)-2-(2-pyrimidinyl)-4-pyrimidinyl]-1-methyl-2-phenylethenesulfonamide], the IC50 in test [2] (setting [4]) was 1.6 nM.

As for `CCC(=Cc1ccccc1)S(=O)(=O)Nc1nc(-c2ncccn2)nc(OC)c1Oc1ccccc1OC.[K]` [Example 38, Potassium N-[6-methoxy-5-(2-methoxyphenoxy)-2-(2pyrimidinyl)-4-pyrimidinyl]-1-ethyl-2-phenylethenesulfonamidate], the ED (2-fold shift) in test [1] (po) turned out to be 0.65 mg/kg. The IC50 in test [2] (setting [4]) stood at 3.3 nM.

As for `COc1ccccc1Oc1c(NS(=O)(=O)C=Cc2ccc(C)cc2)nc(-c2ncccn2)nc1OC` [Example 39, N-[6-Methoxy-5-(2-methoxyphenoxy)-2-(2-pyrimidinyl)-4-pyrimidinyl]-2-(4-methylphenyl)ethenesulfonamide], in test [2] (setting [4]), the half-maximal inhibitory concentration (IC50) was determined as 2.8 nM.

On to `COc1ccccc1Oc1c(NS(=O)(=O)C=Cc2cccs2)nc(-c2ncccn2)nc1OC` [Example 42, N-[6-Methoxy-5-(2-methoxyphenoxy)-2-(2-pyrimidinyl)-4-pyrimidinyl]-2-(2-thienyl)ethenesulfonamide], for which the ED (2-fold shift) in test [1] (setting [3]) stood at 1.85 mg/kg. In addition, the IC50 in test [2] (setting [4]) is 1.5 nM.

Take `COc1ccccc1Oc1c(NS(=O)(=O)C=Cc2ccc3ccccc3c2)nc(-c2ncccn2)nc1OC` [Example 45, N-[6-Methoxy-5-(2-methoxyphenoxy)-2-(2-pyrimidinyl)-4-pyrimidinyl]-2-(2-naphthyl)ethenesulfonamide]: the IC50 in test [2] (setting [4]) was 4.4 nM.

Turning to `COc1ccccc1Oc1c(NS(=O)(=O)C=Cc2ccccc2Cl)nc(-c2ncccn2)nc1OC` [Example 47, N-[6-Methoxy-5-(2-methoxyphenoxy)-2-(2-pyrimidinyl)-4-pyrimidinyl]-2-(2-chlorophenyl)ethenesulfonamide], in test [2] (setting [4]), the half-inhibitory concentration (IC50) came out at 3 nM.

For the origin of these results see patent US6083955A, “Arylethenesulfonamide derivatives and drug composition containing the same” (Yamanouchi Pharmaceutical Co., Ltd., priority 1995, dated 2000).
